Like-named read-outs stand apart in the source and are kept apart here.
Columns and labels:
[1] = SPECT-CT distribution of 99mTC-DTPA aerosol in nasal cavity and nasopharynx; assay type: in vivo; conditions: human volunteer, 300 microliters, air volume 20 ml
Protocol: The effects of air volume and air pressure on the distribution of 99mTC-DTPA aerosol in the nasal cavity and nasopharynx were examined using SPECT-CT for two human volunteers.
In both cases, the deposited material comprised 300 microliters of DTPA; 1.75 mc (milli Ciri) and the air volume was 20 ml. A pressure of 6 barg was used for the results shown in FIG. 31A, while a pressure of 4 barg was used for the results shown in FIG. 31B.

[2] = rat, in vivo
Protocol: For most liquid drug formulations, the drugs are dissolved in, suspended in or mixed with water-based liquids. However, many of the cannabis derivatives that show promise as therapeutic agents, such as the cannabinoids, need to be dissolved in oil. Therefore, a study was done to investigate uptake to the brain of an oil-based formulation. For this study, Fluorescein was dissolved in oil and administered intranasally, via the SipNose device, to rats. Fluorescein was administered to the control animals intravenously.

rats [3] = test: Repeated Topiramate dosing: body weight and food consumption; assay type: in vivo, rat
Excerpt: The study investigated repeated intra-nasal delivery of Topiramate, using SipNose's novel device, in order to evaluate its effect on food consumption, body weight, and behavior and to measure the concentrations of the drug in the brain and plasma, in comparison to oral administration. Also, the safety of repeated dosing was examined.
The probability of appetite loss is a potential indicator for Topiramate. Food consumption was monitored during the experiment, and as the expectation was that food consumption will be reduced, care was taken in order to make sure it is not too dramatic or harmful to the animals.
A total of 38 rats were utilized. Thirty six (36) rats were divided into four groups of nine animals in each group. Two animals were used as the naïve, untreated group.
Topiramate was used in its original API form with no specific formulation. Topiramate was delivered to the nasal cavity either as a dry powder or as a solution of 10 mg/ml solubilized in Saline.
Application was by means of a SipNose device (FIG. 105) configured for use in the nasal cavities of rats. In order to alleviate the discomfort animal might endured during IN administration, Lidocaine was locally applied on the nasal area, prior to placement of the SipNose's device.
(§1) The study was performed according to the parameters of Table 31, for group allocation, and Table 32, for the study time-line. […] This provided a total of 1.56 mg per day per animal. For the liquid nasal samples, the administration was performed IN via SipNose's dedicated device at doses of 78 μL, from 10 mg/ml stock, or orally, after dilution to a dose volume of 200 μL. Food consumption was monitored two days before study initiation and daily during the study. Three (3) animals per group were sacrificed 45 minutes after the first dose of the first day, and six animals per group were sacrificed after 6 consecutive days of dosing, via CO2 asphyxiation.
Body weight was recorded upon arrival, 2 days before study initiation and once a day thereafter.

[4] = rat, in vivo; remark: listed apart in the source
Protocol: (§3) A total of 13 male Sprague-Dawley rats were utilized. The animals were divided into four treated groups of three rats and one group with one naïve control rat.
(§4) The following tests were performed: • After sacrifice, gross pathology was performed, examining the nasal cavity (both sides, including the olfactory epithelium), the nasopharynx, paranasal sinus, trachea, lungs, brain (in several areas including the olfactory bulb), heart and larynx. • A histopathological evaluation of all groups of animals was made. • Blood was collected and plasma prepared 10, 30 and 90 min after the first and second administration and at termination.
(§5) IN application was carried out using solution at a dose volume of 300 μl per naris or as a powder (in two formulations). In all cases the total dose per rat was 6 mg of Topiramate. Prior to application of the test material, lidocaine was applied locally to the outer area of the nostril in order to decrease the level of distress.
(§6) Blood samples were collected into Li-Heparin tubes on ice, at 10, 30 and 90 min post first and second dosing. A blood volume of approximately 300 μl was obtained at each time point.
(§7) Topiramate was administered to the relevant study groups twice, with a five hour interval between administrations.

Sprague-Dawley rats = test: Topiramate safety and toxicity study (food consumption, body weight, histopathology); assay type: in vivo, rat
Protocol: A study was performed to evaluate the safety and toxicity, including adverse effects, of Topiramate following intranasal administration via a SipNose device to Sprague-Dawley (SD) rats. A dose 8 times the therapeutic dose was administered in order to determine the maximal tolerated dose. Doses used in this study were chosen to assess the safety of the approved drug given via the nose with an embodiment of a sipNose device.
Animals were observed individually at least once during the first 30 minutes after dosing, with special attention during the first four hours and prior to termination. Observations included changes in skin and fur, eyes and mucous membranes, and also respiratory, circulatory, autonomic and central nervous systems, and somatomotor activity and behavior pattern.
Body weight was monitored one day after the animals' arrival, prior to administration of the test material and before termination.
Animals were sacrificed via carbon dioxide asphyxiation and gross pathology was performed, examining the major tissue and organ systems.
Lungs were evaluated in both right and left lobes. All tissues were trimmed into block cassettes and sent to L.E.M for slide preparation and staining.

in vivo = conditions: male, Sprague-Dawley, rat, 6 mg; for half-life: Half-life (estimated)
Protocol: as §3, §4, §5, §6, §7

patients = conditions: commercial use; cited from earlier work
rats [5] = test: Repeated Topiramate dosing: histopathological evaluation; assay type: in vivo, rat; conditions: all samples of all tissues examined, 6 days dosing
Protocol: as §1
(§2) Perfusion was performed under anesthesia with Isoflurane, using saline, for further PK examination of compounds in the brain.
Animals were sacrificed 45 minutes after the first administration of Day 1 and the last administration of Day 6, following blood sampling of 400 μL, if required, as described below. Three (3) rats, sacrificed after the first dosing day, were perfused with saline for PK analysis of blood and brain. Animals sacrificed on the last day of the study (after one dose only) were divided into 2 groups: one animal in each cage was bled and perfused with saline, after which the brain was collected and frozen in liquid nitrogen for PK analysis. […] Inflammatory status was evaluated. […]

rats [6] = conditions: cited from earlier work
[7] = Repeated Topiramate dosing: plasma and brain concentrations; assay type: in vivo; conditions: rat, 0.78 mg, rats
Protocol: as §1, §2
Animals were sacrificed 45 minutes after the first administration of Day 1 and the last administration of Day 6, following blood sampling of 400 μL, if required, as described below. Three (3) rats, sacrificed after the first dosing day, were perfused with saline for PK analysis of blood and brain. Animals sacrificed on the last day of the study ([…]) were divided into 2 groups: one animal in each cage was bled and perfused with saline, after which the brain was collected and frozen in liquid nitrogen for PK analysis. The second animal in the cage was sacrificed by CO2 asphyxiation and the nasal cavity (including the olfactory epithelium), nasopharynx, paranasal sinus, trachea, lungs, brain, heart and larynx were collected and fixed in 4% formaldehyde and Histopathological evaluation (H&E staining) was performed. Inflammatory status was evaluated. Slide preparation was followed by histopathological examination of the collected organs during scheduled termination and necropsy from all the animals. Tissues were trimmed, embedded in paraffin, sectioned at approximately five micron thickness and stained with Hematoxylin & Eosin (H&E).

[8] = Brain absorption of insulin after SipNose nasal administration (quantitative ELISA); assay type: in vivo; conditions: rabbit; 10 U/Kg via SipNose nasal administration; 1 h, 2 h, 3 h post administration
Protocol: The substance in this experiment is Human Insulin (Lispro insulin, 5807 Da); the animal model is a rabbit. Administration was 10 U/Kg of Human Insulin via SipNose nasal administration. Brain concentrations were measured using insulin quantitative ELISA at 1 h, 2 h, and 3 h post administration.

[9] = Blood and brain absorption of insulin, SipNose nasal vs IV administration; assay type: in vivo, rabbit; conditions: rabbits, 0.5 U/kg
Protocol: In FIG. 76A-C, the efficacy of delivery of insulin to the brain is compared for the SipNose device vs. IV administration. The substance was Lispro insulin (5,807 Da) administered to rabbits. Four rabbits were used; all animals were given 0.5 U/kg of Human Insulin. Administration was via IV for rabbits 1 and 3 and via SipNose nasal administration for rabbits 2 and 4. Brain concentrations were measured using insulin quantitative ELISA.

Compound: O=C([O-])CN(CCN(CC(=O)[O-])CC(=O)[O-])CCN(CC(=O)[O-])CC(=O)[O-].[99Tc+4] [99mTC-DTPA]
- distribution of aerosol (SPECT-CT) ([1]; pressure 4 barg): localized in the nasal cavity at the respiratory and olfactory epitheliums and also moved down into the Nasopharynx (upper dotted arrow) and into the GI tract
- distribution of aerosol (SPECT-CT) ([1]; pressure 6 barg): localized in the nasal cavity at the respiratory and olfactory epitheliums (dashed arrow) and did not reach the Nasopharynx and did not enter the GI tract

Compound: O=C1OC2(c3ccc(O)cc3Oc3cc(O)ccc32)c2ccccc21 [Fluorescein]
- distribution within the brain [2]: distributed throughout the brain, rather than being concentrated in the cerebellum
- early deposition in the spinal cord [2]: considerably less early deposition
- uptake to the brain vs I/V [2]: considerably more uptake to the brain

Compound: CC1(C)O[C@@H]2[C@@H](CO[C@@]3(COS(N)(=O)=O)OC(C)(C)O[C@@H]23)O1 [Topiramate]
- food consumption (rats [3]; Group 2M liquid Topiramate oral): increased food consumption
- increase in body weight relative to all other treatment groups (rats [3]; Group 2M, end of treatment period (day 6)): 2 fold
- increase in body weight during the treatment phase (rats [3]; Group 2M, liquid Topiramate oral, 0.78 mg twice a day, 6 days): approximately 17%
- food consumption (rats [3]; Group 3M liquid Topiramate IN SipNose): reduced food consumption
- food consumption (rats [3]; Group 4M dry powder Topiramate IN SipNose): reduced food consumption
- increase in body weight during the treatment phase (rats [3]; the other treatment groups (IN via SipNose)): ~8%
- lower plasma value 10 minutes after second vs first administration ([4]; male, Sprague-Dawley, 10 min): 26%
- plasma level 10 minutes after first administration, IN vs oral ([4]; male, Sprague-Dawley, 10 min): about twice the concentration found 10 minutes after oral administration
- Half-life (estimated) ([4]; male, Sprague-Dawley, inhaled or intranasal, 6 mg): 5.07 h
- higher plasma value 10 minutes after second vs first administration ([4]; male, Sprague-Dawley, po, 10 min): 84%
- plasma levels 18 hours after the second administration [4]: dropped to pre-administration levels
- Food consumption on Day 2, relative to naïve rats (Sprague-Dawley rats; rats treated IN with Topiramate liquid): 98%
- Food consumption on Day 2, relative to naïve rats (Sprague-Dawley rats; rats treated by Topiramate powder IN): around 60%
- Food consumption on Day 2, relative to naïve rats (Sprague-Dawley rats; rats treated orally with Topiramate): 91%
- body weight change from study initiation to termination (Sprague-Dawley rats; rats, all groups): relatively minor
- drug-related pathological changes (histology) (Sprague-Dawley rats; rats, any animal, any investigated tissue, 6 mg twice, oral or IN): No drug-related pathological changes were detected
- half-life (in vivo): 0.75 h
- half-life (in vivo; inhaled or intranasal): 4.32 h
- AUC (in vivo; po, AUC (estimated)): 11800 ng·h/mL
- patients with side effects such as somnolence, fatigue and dizziness (patients): over 10%
- histopathological findings after repeated dosing (rats [5]): No major histopathological findings were observed
- time for which ED50 is stable after oral administration (rats [6]): 8 h
- concentration at 45 min ([7]; brain, other: IN (intranasal) via SipNose device, group 4M powder IN, read-out: Topiramate brain concentration following the 11th administration): 1030 ± 172 ng/mL
- concentration at 45 min ([7]; plasma, other: IN (intranasal) via SipNose device, group 3M liquid IN, 45 minutes, read-out: Topiramate plasma concentration after the first administration): 1510 ± 505 ng/mL
- concentration at 45 min ([7]; plasma, other: IN (intranasal) via SipNose device, group 4M powder IN, 45 minutes, read-out: Topiramate plasma concentration after the first administration): 4140 ± 597 ng/mL
- concentration at 45 min ([7]; plasma, other: IN (intranasal) via SipNose device, group 4M powder IN, read-out: Topiramate plasma (blood) concentration following the 11th administration): 1980 ± 256 ng/mL
- concentration at 45 min ([7]; plasma, po, group 2M liquid oral, 45 minutes, read-out: Topiramate plasma concentration after the first administration): 2070 ± 228 ng/mL

Compound: Lispro Insulin: Human Insulin (Lispro insulin, 5807 Da)
- delivery of insulin to the brain (brain concentration, ELISA) [8]: delivered to the brain with the SipNose device and can be specifically detected
- distribution of insulin in parts of the brain ([9]; SipNose direct-nose-to-brain): Insulin in both anterior and posterior parts of the brain
- efficiency of delivery to the brain compared to I/V ([9]; SipNose nasal vs IV): highly efficient when compared to I/V administration

Source: patent US11278682B2, “Device and method for aerosolized delivery of substance to a natural orifice of the body” (SIPNOSE LTD., priority 2014, dated 2022)
